According to patent US6737383B1, “Herbicidal oxadiazolidines” (priority 1999, dated 2004):

Assays:
velvetleaf = experiment: Test B pre/postemergence velvetleaf; assay type: in vivo, Abutilon theophrasti
Summary of the method: (§1)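 Test chemicals in a non-phytotoxic solvent mixture with surfactant were sprayed preemergence onto planted seeds and postemergence onto plants 2 to 18 cm tall (1- to 4-leaf stage). After twelve to sixteen days in a greenhouse, injury was visually rated against untreated controls from 0 (no effect) to 10 (complete control).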

bamyardgrass = experiment: Test B flood test barnyardgrass; assay type: in vivo, Echinochloa crus-galli
Summary of the method: (§2)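 Plants were grown to the 2-leaf stage before treatment with test chemical, then held in a greenhouse for twelve to sixteen days. Injury was visually rated against untreated controls on a 0–10 scale, where 0 is no effect and 10 is complete control.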

wheat = experiment: Test B pre/postemergence wheat; assay type: in vivo, Triticum aestivum
Summary of the method: as §1

wild oat = experiment: Test B pre/postemergence wild oat; assay type: in vivo, Avena fatua
Summary of the method: as §1

surinam grass = experiment: Test B pre/postemergence surinam grass; assay type: in vivo, Brachiaria decumbens
Summary of the method: as §1

blackgrass = experiment: Test B pre/postemergence blackgrass; assay type: in vivo, Alopecurus myosuroides
Summary of the method: as §1

corn = experiment: Test B pre/postemergence corn; assay type: in vivo, Zea mays
Summary of the method: as §1

smallflower flatsedge = experiment: Test B flood test smallflower flatsedge; assay type: in vivo, Cyperus difformis
Summary of the method: as §2

cocklebur = experiment: Test B pre/postemergence cocklebur; assay type: in vivo, Xanthium strumarium
Summary of the method: as §1

sugar beet = experiment: Test B pre/postemergence sugar beet; assay type: in vivo, Beta vulgaris
Summary of the method: as §1

bedstraw = experiment: Test B pre/postemergence bedstraw; assay type: in vivo, Galium aparine
Summary of the method: as §1

soybean = experiment: Test B pre/postemergence soybean; assay type: in vivo, Glycine max
Summary of the method: as §1

pigweed = experiment: Test B pre/postemergence pigweed; assay type: in vivo, Amaranthus retroflexus
Summary of the method: as §1

purple nutsedge = experiment: Test B pre/postemergence purple nutsedge; assay type: in vivo, Cyperus rotundus; conditions: Postemergence
Summary of the method: as §1

rape = experiment: Test B pre/postemergence rape; assay type: in vivo, Brassica napus
Summary of the method: as §1

crabgrass = experiment: Test B pre/postemergence crabgrass; assay type: in vivo, Digitaria sanguinalis
Summary of the method: as §1

[1] = Preemergence, Rate 62 g/ha, scale of 0 to 10 where 0 is no effect and 10 is complete control
[2] = Preemergence, Rate 250 g/ha, scale 0 to 10, 0 is no effect, 10 is complete control
[3] = Preemergence, Rate 500 g/ha, scale of 0 to 10 where 0 is no effect and 10 is complete control
[4] = Rate 62 g/ha, Postemergence, scale of 0 to 10 where 0 is no effect and 10 is complete control
[5] = Rate 125 g/ha, Postemergence, scale 0 to 10
[6] = Rate 62 g/ha, headed Pre-emergence (flood test species), scale 0 to 10 (0 no effect, 10 complete control)
[7] = Rate 125 g/ha, Pre-emergence, flood test species, scale 0 to 10 where 0 is no effect and 10 is complete control
[8] = Rate 250 g/ha, Pre-emergence, flood-test species, scale 0 to 10, 0 is no effect, 10 is complete control
[9] = Preemergence, Rate 125 g/ha, 0 is no effect, 10 is complete control
[10] = Rate 500 g/ha, Postemergence, scale 0 to 10

For `Cc1ccccc1-n1c(=O)on(C(=O)N(c2ccc(Cl)cc2F)C(C)C)c1=O` [Compound 195], the “Velvetleaf plant response rating” value (velvetleaf; [1]) was 0, the “Velvetleaf plant response rating” value (velvetleaf; [2]) was 0 and the “Plant response rating, Velvetleaf” value (velvetleaf; [3]) was 0. The “Velvetleaf plant response rating” value (velvetleaf; [4]) was 0, the “Velvetleaf plant response rating” value (velvetleaf; [5]) was 0 and the “Plant response rating (0 to 10; 0 is no effect, 10 is complete control), Velvetleaf” value (velvetleaf; Rate 250 g/ha, Postemergence) was 2. The “Barnyardgrass plant response rating” value (bamyardgrass; [6]) was 0, the “Barnyardgrass plant response rating” value (bamyardgrass; [7]) was 0 and the “Barnyardgrass plant response rating” value (bamyardgrass; [8]) was 0. For the same compound, the “Plant response rating, Barnyardgrass” value (bamyardgrass; Rate 500 g/ha, headed Pre-emergence (flood test species), scale 0 to 10 (0 no effect, 10 complete control)) was 0, the “Wheat plant response rating” value (wheat; [1]) was 0 and the “Wheat plant response rating” value (wheat; [2]) was 0. For the same compound, the “Plant response rating, Wheat” value (wheat; [3]) was 0, the “Wheat plant response rating” value (wheat; [4]) was 0 and the “Wheat plant response rating” value (wheat; [5]) was 0. For the same compound, the “Plant response rating (0 to 10; 0 is no effect, 10 is complete control), Wheat” value (wheat; Rate 250 g/ha, Postemergence) was 0, the “Wild oats plant response rating” value (wild oat; [1]) was 0 and the “Wild oats plant response rating” value (wild oat; [2]) was 0. The “Plant response rating, Wild oats” value (wild oat; [3]) was 4, the “Wild oats plant response rating” value (wild oat; [4]) was 0 and the “Wild oats plant response rating” value (wild oat; [5]) was 0. The “Plant response rating (0 to 10; 0 is no effect, 10 is complete control), Wild oats” value (wild oat; Rate 250 g/ha, Postemergence) was 0, the “B. signalgrass plant response rating” value (surinam grass; [1]) was 0 and the “B. signalgrass plant response rating (0 to 10 scale)” value (surinam grass; [9]) was 0. For the same compound, the “B. signalgrass plant response rating” value (surinam grass; [2]) was 1, the “Plant response rating, B. signalgrass” value (surinam grass; [3]) was 6 and the “B. signalgrass plant response rating” value (surinam grass; [4]) was 0. The “B. signalgrass plant response rating” value (surinam grass; Rate 125 g/ha, Postemergence, scale 0 (no effect) to 10 (complete control)) was 0, the “Plant response rating, B. signalgrass” value (surinam grass; Rate 250 g/ha, Postemergence, scale 0 to 10, 0 is no effect, 10 is complete control) was 0 and the “B. signalgrass plant response rating” value (surinam grass; Rate 500 g/ha, Postemergence, scale 0 to 10, 0 no effect, 10 complete control) was 1. For the same compound, the “Blackgrass plant response rating” value (blackgrass; [1]) was 0, the “Blackgrass plant response rating (0 to 10 scale)” value (blackgrass; [9]) was 1 and the “Blackgrass plant response rating” value (blackgrass; [2]) was 3. The “Plant response rating, Blackgrass” value (blackgrass; [3]) was 6, the “Blackgrass plant response rating” value (blackgrass; [4]) was 0 and the “Blackgrass plant response rating” value (blackgrass; [5]) was 3. The “Plant response rating (0 to 10; 0 is no effect, 10 is complete control), Blackgrass” value (blackgrass; Rate 250 g/ha, Postemergence) was 5, the “Blackgrass plant response rating” value (blackgrass; [10]) was 6 and the “Corn plant response rating” value (corn; [1]) was 0. For the same compound, the “Corn plant response rating (0 to 10 scale)” value (corn; [9]) was 0, the “Corn plant response rating” value (corn; [2]) was 0 and the “Plant response rating, Corn” value (corn; [3]) was 0. The “Corn plant response rating” value (corn; [4]) was 0, the “Corn plant response rating” value (corn; [5]) was 0 and the “Plant response rating (0 to 10; 0 is no effect, 10 is complete control), Corn” value (corn; Rate 250 g/ha, Postemergence) was 0. For the same compound, the “Corn plant response rating” value (corn; [10]) was 0, the “S. Flatsedge plant response rating” value (smallflower flatsedge; [6]) was 0 and the “S. Flatsedge plant response rating” value (smallflower flatsedge; [7]) was 0. For the same compound, the “S. Flatsedge plant response rating” value (smallflower flatsedge; [8]) was 0, the “S. Flatsedge plant response rating” value (smallflower flatsedge; Rate 500 g/ha, Pre-emergence, flood test species, scale 0 to 10 (0 no effect, 10 complete control)) was 0 and the “Cocklebur plant response rating” value (cocklebur; [1]) was 0. The “Cocklebur plant response rating (0 to 10 scale)” value (cocklebur; [9]) was 0, the “Cocklebur plant response rating” value (cocklebur; [2]) was 0 and the “Plant response rating, Cocklebur” value (cocklebur; [3]) was 0. For the same compound, the “Cocklebur plant response rating” value (cocklebur; [4]) was 0, the “Cocklebur plant response rating” value (cocklebur; [5]) was 2 and the “Plant response rating (0 to 10; 0 is no effect, 10 is complete control), Cocklebur” value (cocklebur; Rate 250 g/ha, Postemergence) was 2. The “Cocklebur plant response rating” value (cocklebur; [10]) was 2, the “Sugarbeets plant response rating” value (sugar beet; [1]) was 0 and the “Sugarbeets plant response rating (0 to 10 scale)” value (sugar beet; [9]) was 0. For the same compound, the “Sugarbeets plant response rating” value (sugar beet; [2]) was 0, the “Plant response rating, Sugarbeets” value (sugar beet; [3]) was 2 and the “Sugarbeets plant response rating” value (sugar beet; [4]) was 0. The “Sugarbeets plant response rating” value (sugar beet; [5]) was 0, the “Plant response rating (0 to 10; 0 is no effect, 10 is complete control), Sugarbeets” value (sugar beet; Rate 250 g/ha, Postemergence) was 0 and the “Sugarbeets plant response rating” value (sugar beet; [10]) was 2. For the same compound, the “Bedstraw plant response rating” value (bedstraw; [1]) was 0, the “Bedstraw plant response rating (0 to 10 scale)” value (bedstraw; [9]) was 0 and the “Bedstraw plant response rating” value (bedstraw; [2]) was 0. For the same compound, the “Plant response rating, Bedstraw” value (bedstraw; [3]) was 2, the “Bedstraw plant response rating” value (bedstraw; [4]) was 2 and the “Bedstraw plant response rating” value (bedstraw; [5]) was 2. The “Bedstraw plant response rating” value (bedstraw; [10]) was 7, the “Soybean plant response rating” value (soybean; [1]) was 0 and the “Soybean plant response rating (0 to 10 scale)” value (soybean; [9]) was 0. For the same compound, the “Soybean plant response rating” value (soybean; [2]) was 0, the “Plant response rating, Soybean” value (soybean; [3]) was 0 and the “Soybean plant response rating” value (soybean; [4]) was 2. The “Soybean plant response rating” value (soybean; [5]) was 3, the “Plant response rating (0 to 10; 0 is no effect, 10 is complete control), Soybean” value (soybean; Rate 250 g/ha, Postemergence) was 4 and the “Soybean plant response rating” value (soybean; [10]) was 5. The “Redroot pigweed plant response rating” value (pigweed; [1]) was 0, the “Redroot pigweed plant response rating (0 to 10 scale)” value (pigweed; [9]) was 0 and the “Redroot pigweed plant response rating” value (pigweed; [2]) was 0. For the same compound, the “Plant response rating, Redroot pigweed” value (pigweed; [3]) was 0, the “Redroot pigweed plant response rating” value (pigweed; [4]) was 0 and the “Redroot pigweed plant response rating” value (pigweed; [5]) was 0. For the same compound, the “Plant response rating (0 to 10; 0 is no effect, 10 is complete control), Redroot pigweed” value (pigweed; Rate 250 g/ha, Postemergence) was 2, the “Redroot pigweed plant response rating” value (pigweed; [10]) was 4 and the “Nutsedge plant response rating” value (purple nutsedge; Rate 62 g/ha, scale of 0 to 10 where 0 is no effect and 10 is complete control) was 0. For the same compound, the “Nutsedge plant response rating” value (purple nutsedge; Rate 125 g/ha, scale 0 to 10) was 0, the “Plant response rating (0 to 10; 0 is no effect, 10 is complete control), Nutsedge” value (purple nutsedge; Rate 250 g/ha) was 0 and the “Nutsedge plant response rating” value (purple nutsedge; Rate 500 g/ha, scale 0 to 10) was 0. For the same compound, the “Rape plant response rating” value (rape; [1]) was 0, the “Rape plant response rating (0 to 10 scale)” value (rape; [9]) was 0 and the “Rape plant response rating” value (rape; [2]) was 0. The “Plant response rating, Rape” value (rape; [3]) was 0, the “Rape plant response rating” value (rape; [4]) was 0 and the “Rape plant response rating” value (rape; [5]) was 0. For the same compound, the “Plant response rating (0 to 10; 0 is no effect, 10 is complete control), Rape” value (rape; Rate 250 g/ha, Postemergence) was 0, the “Rape plant response rating” value (rape; [10]) was 0 and the “Crabgrass plant response rating” value (crabgrass; [1]) was 3. For the same compound, the “Crabgrass plant response rating (0 to 10 scale)” value (crabgrass; [9]) was 4, the “Crabgrass plant response rating” value (crabgrass; [2]) was 5 and the “Plant response rating, Crabgrass” value (crabgrass; [3]) was 9. For the same compound, the “Crabgrass plant response rating” value (crabgrass; [4]) was 0, the “Crabgrass plant response rating” value (crabgrass; [5]) was 0 and the “Plant response rating (0 to 10; 0 is no effect, 10 is complete control), Crabgrass” value (crabgrass; Rate 250 g/ha, Postemergence) was 2. For the same compound, the “Crabgrass plant response rating” value (crabgrass; [10]) was 5.
